Test results: US11951094B2, “TLR2 modulator compounds, pharmaceutical compositions and uses thereof” (Axial Therapeutics, Inc., priority 2020, dated 2024)

Molecular target: TLR2 (Homo sapiens, UniProt O60603)
Experiment: TLR2 agonist screening assay, HEK-Blue TLR2 reporter cell line (NF-kB-driven SEAP, absorbance at 600 nm)
Type: cell-based
Set-up: host or cells: HEK-293 (HEK-Blue TLR2 reporter cell line)
Settings: HEK-Blue TLR2 reporter cells, agonist mode
Text: TLRs are a class of cell-surface receptors expressed on many different cell types that recognize conserved structural motifs present on pathogen-derived molecules. TLR2 recognizes bacteria-derived lipopeptides. […] Provided herein is an assay to identify and characterize the binding affinities of novel TLR2 agonists.
The in vitro TLR2 assay consists of a cell line that responds to TLR2 engagement by producing a factor that elicits a color change in the culture media and can be readily measured by various colorimetric detection methods. This assay enables the identification of existing and novel compounds that engage TLR2 and, by virtue of compound dilution, to approximate the binding affinity of these compounds for eliciting a TLR2 signal.
The TLR2 screening assay was developed from the HEK-Blue TLR2 reporter cell line that is commercially available from Invivogen (San Diego, CA). The reporter cell line consists of HEK-293 embryonic kidney cells that have been engineered to express TLR2 and with an NF-kB promoter driving expression of Secreted Alkaline Phosphatase (SEAP). Upon engagement of TLR2, downstream signaling results in activation of NF-kB pathway activation and secretion of SEAR In the presence of the detection reagent in the tissue culture media, SEAP mediates a color change from clear to indigo that is readily assessed by measuring absorbance at 600 nm.
HEK-Blue TLR2 reporter cells are cultured according to manufacturer's specifications until a confluence of 70-90%, at which point the cells are trypsinized, counted, and plated into 96-well plates at approximately 40,000 cells per well. Cells are cultured overnight and the TLR2 assay is performed 16-24 hours post-plating into 96 well plates.
Compounds are diluted from stocks dissolved in DMSO and a 1% DMSO final concentration is maintained in all testing wells.
The assay consists of removing the cell culture media after cells have been cultured overnight and replacing the media with HEK-Blue Detection media with TLR2 agonists at indicated dilution schemes. The Detection media contains a chemical substrate that turns from clear to indigo when acted upon by SEAP. The HEK-Blue cells are then cultured overnight in Detection media with diluted compounds. After overnight culture with agonists, each well of the plate is assayed in a plate reader at 600 nanometer absorbance.
• (1) HEK-Blue TLR2 cells are diluted in complete DME culture medium and plated into 96-well plates at 40,000 cells per well and cultured overnight. • (2) After 16-24 hours in culture, the media is removed and replaced with 200 microliters per well of HEK-Blue Detection media. • (3) TLR2 agonists are diluted 100-fold from DMSO stocks into each well, yielding a final DMSO concentration of 1% in all wells. • (3) Treated cells are cultured overnight and the following day are assayed in plate reader for Absorbance at 600 nanometer.
Following assay measurements utilizing either HEK-Blue detection or cytokine release, all data is analyzed with the GraphPad Prism8 statistical package to determine EC50, binding and activity metrics for the TLR2 modulators.
Data is generated using protocol described in Example 44.

Sequence of TLR2 (O60603 21-784): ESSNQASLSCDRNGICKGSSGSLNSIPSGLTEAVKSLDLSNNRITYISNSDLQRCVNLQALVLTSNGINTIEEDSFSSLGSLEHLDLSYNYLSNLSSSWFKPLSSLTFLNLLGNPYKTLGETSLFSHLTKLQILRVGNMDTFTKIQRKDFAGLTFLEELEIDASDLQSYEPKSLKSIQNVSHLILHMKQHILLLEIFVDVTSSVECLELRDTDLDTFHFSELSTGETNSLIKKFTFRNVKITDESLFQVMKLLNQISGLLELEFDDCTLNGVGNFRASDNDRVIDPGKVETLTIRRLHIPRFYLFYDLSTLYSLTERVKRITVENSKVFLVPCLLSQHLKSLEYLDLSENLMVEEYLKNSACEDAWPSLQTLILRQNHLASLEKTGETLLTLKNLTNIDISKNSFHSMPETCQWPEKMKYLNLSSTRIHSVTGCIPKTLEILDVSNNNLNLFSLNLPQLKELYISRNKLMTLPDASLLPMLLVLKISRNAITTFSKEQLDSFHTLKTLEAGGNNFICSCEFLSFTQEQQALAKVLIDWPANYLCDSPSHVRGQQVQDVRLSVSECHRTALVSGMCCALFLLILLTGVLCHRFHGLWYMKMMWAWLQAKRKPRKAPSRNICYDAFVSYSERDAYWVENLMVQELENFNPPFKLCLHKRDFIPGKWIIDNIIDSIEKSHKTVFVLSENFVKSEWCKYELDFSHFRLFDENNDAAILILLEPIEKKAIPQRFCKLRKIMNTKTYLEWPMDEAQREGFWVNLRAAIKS

Row | EC50 (average of all runs (Table 3)) [µM] | EC50 (average of all runs (Table 4)) [µM] | Structure (SMILES)
1 | > 1 |  | O=C(N[C@H]1C[C@@H]1c1ccccc1)[C@@H]1CN(C(=O)c2cnc(C(=O)N3C[C@@H](C(=O)N[C@H]4C[C@@H]4c4ccccc4)[C@H](C(=O)N[C@H]4C[C@@H]4c4ccccc4)C3)cn2)C[C@H]1C(=O)N[C@H]1C[C@@H]1c1ccccc1 [Compound 067]
2 |  | 0.051 to 0.35 | CCCCCCCCCCCCCCNC(=O)C[C@H]1CCCN1C(=O)c1ccc(C(=O)N2C[C@@H](C(=O)N[C@H]3C[C@@H]3c3ccccc3)[C@H](C(=O)N[C@H]3C[C@@H]3c3ccccc3)C2)cc1 [Compound 127, (3S,4S)-1-(4-((R)-2-(2-oxo-2-(tetradecylamino)ethyl)pyrrolidine-1-carbonyl)benzoyl)-N3,N4-bis((1S,2R)-2-phenylcyclopropyl) pyrrolidine-3,4-dicarboxamide]
3 |  | 0.051 to 0.35 | CCCCCCCCCCCCCCNC(=O)[C@H]1CN(C(=O)c2ccc(C(=O)N3C[C@@H](C(=O)N[C@H]4C[C@@H]4c4ccccc4)[C@H](C(=O)N[C@H]4C[C@@H]4c4ccccc4)C3)cc2)C[C@@H]1O (single isomer, unassigned) [Compound 106, (3S,4S)-1-(4-((3S*,4R*)-3-hydroxy-4-(tetradecylcarbamoyl)pyrrolidine-1-carbonyl)benzoyl)-N3,N4-bis((1S,2R)-2-phenylcyclopropyl)pyrrolidine-3,4-dicarboxamide]
4 | 0.0001 to 0.05 |  | CCCCCCNC(=O)C1CN(C(=O)c2ccc(C(=O)N3C[C@@H](C(=O)N[C@H]4C[C@@H]4c4ccccc4)[C@H](C(=O)N[C@H]4C[C@@H]4c4ccccc4)C3)cc2)CCN1C(=O)CCCCCC (mixture of isomers) [Compound 056, (3S,4S)-1-(4-(4-heptanoyl-3-(hexylcarbamoyl)piperazine-1-carbonyl)benzoyl)-N3,N4-bis((1S,2R)-2-phenylcyclopropyl)pyrrolidine-3,4-dicarboxamide]
5 | > 1 |  | CCCCCCCC(=O)N1CCN(C(=O)c2ccc(C(=O)N3C[C@@H](C(=O)N[C@H]4C[C@@H]4c4ccccc4)[C@H](C(=O)N[C@H]4C[C@@H]4c4ccccc4)C3)cc2)C[C@H]1C(=O)NCCCCCC [Compound 030]
6 |  | 0.351 to 1 | CCCCCCCCCCCCCCC(=O)N[C@@H]1CN(C(=O)c2ccc(C(=O)N3C[C@@H](C(=O)N[C@H]4C[C@@H]4c4ccccc4)[C@H](C(=O)N[C@H]4C[C@@H]4c4ccccc4)C3)cc2)C[C@H]1O [Compound 157, (3S,4S)-1-(4-((3R,4R)-3-hydroxy-4-pentadecanamidopyrrolidine-1-carbonyl)benzoyl)-N3,N4-bis ((1S,2R)-2-phenylcyclopropyl) pyrrolidine-3,4-dicarboxamide]
7 | > 1 |  | CCCCCCN(CCCCCC)C(=O)[C@H]1CCN(C(=O)c2ccc(C(=O)N3C[C@@H](C(=O)N[C@H]4C[C@@H]4c4ccccc4)[C@H](C(=O)N[C@H]4C[C@@H]4c4ccccc4)C3)cc2)C1 [Compound 009]
8 |  | 0.051 to 0.35 | CO[C@H]1CN(C(=O)c2ccc(C(=O)N3C[C@@H](C(=O)N[C@H]4C[C@@H]4c4ccccc4)[C@H](C(=O)N[C@H]4C[C@@H]4c4ccccc4)C3)cc2)C[C@@H]1NC(=O)NCc1ccc(F)cc1 [Compound 183, (3S,4S)-1-(4-((3S,4S)-3-(3-(4-fluorobenzyl)ureido)-4-methoxypyrrolidine-1-carbonyl)benzoyl)-N3,N4-bis((1S,2R)-2-phenylcyclopropyl)pyrrolidine-3,4-dicarboxamide]
9 |  | 0.051 to 0.35 | CCCCCCNC(=O)[C@H](CN[C@H](c1ccc(C(=O)N2C[C@@H](C(=O)N[C@H]3C[C@@H]3c3ccccc3)[C@H](C(=O)N[C@H]3C[C@@H]3c3ccccc3)C2)cc1)C(F)(F)F)NC(=O)CCCCCC (single isomer, unassigned) [Compound 149]
10 | > 1 |  | CCCCCCNC(=O)C1CN(C(=O)c2ccc(C(=O)N3C[C@@H](C(=O)N[C@H]4C[C@@H]4c4ccccc4)[C@H](C(=O)N[C@H]4C[C@@H]4c4ccccc4)C3)cc2)CCN1C(=O)NCCCCCC (some centres unmarked) [Compound 049]
11 |  | 0.0001 to 0.05 | CCCCCCCCCCCCCCNC(=O)[C@@H]1CN(C(=O)c2ccc(C(=O)N3C[C@@H](C(=O)N[C@H]4C[C@@H]4c4ccccc4)[C@H](C(=O)N[C@H]4C[C@@H]4c4ccccc4)C3)cc2)C[C@H]1NC [Compound 098, (3S,4S)-1-(4-((3S,4R)-3-(methylamino)-4-(tetradecylcarbamoyl)pyrrolidine-1-carbonyl)benzoyl)-N3,N4-bis((1S,2R)-2-phenylcyclopropyl)pyrrolidine-3,4-dicarboxamide]
12 |  | > 1 | CCCCCCCCCCCCCCNC(=O)[C@H]1CN(Cc2ccc(C(=O)N3C[C@@H](C(=O)N[C@H]4C[C@@H]4c4ccccc4)[C@H](C(=O)N[C@H]4C[C@@H]4c4ccccc4)C3)cc2)CCN1C [Compound 084, (3S,4S)-1-(4-(((R)-4-methyl-3-(tetradecylcarbamoyl)piperazin-1-yl)methyl)benzoyl)-N3,N4-bis((1S,2R)-2-phenylcyclopropyl) pyrrolidine-3,4-dicarboxamide]
13 | > 1 |  | CCCCCCNC(=O)[C@@H](CNC(=O)c1ccc(C(=O)N2C[C@@H](C(=O)N[C@H]3C[C@@H]3c3ccccc3)[C@H](C(=O)N[C@H]3C[C@@H]3c3ccccc3)C2)cc1)NC(=O)CCCCCC [Compound 070, (3S,4S)-1-(4-(((R)-2-heptanamido-3-(hexylamino)-3-oxopropyl)carbamoyl)benzoyl)-N3,N4-bis((1S,2R)-2-phenylcyclopropyl)pyrrolidine-3,4-dicarboxamide]
14 | 0.351 to 1 |  | CCCCCCNC(=O)[C@@H]1CN(C(=O)c2ccc(C(=O)N3C[C@@H](C(=O)N[C@H]4C[C@@H]4c4ccccc4)[C@H](C(=O)N[C@H]4C[C@@H]4c4ccccc4)C3)cc2)C[C@@H]1O (racemic) [Compound 034, (3S,4S)-1-(4-((3R*,4R*)-3-(hexylcarbamoyl)-4-hydroxypyrrolidine-1-carbonyl)benzoyl)-N3,N4-bis((1S,2R)-2-phenylcyclopropyl)pyrrolidine-3,4-dicarboxamide]
15 |  | > 1 | CCCCCCNC(=O)C[C@@H](NC(=O)c1ccc(C(=O)N2C[C@@H](C(=O)N[C@H]3C[C@@H]3c3ccccc3)[C@H](C(=O)N[C@H]3C[C@@H]3c3ccccc3)C2)cc1)C(=O)NCCCCCC [Compound 117, (3S,4S)-1-(4-(((R)-1,4-bis(hexylamino)-1,4-dioxobutan-2-yl)carbamoyl)benzoyl)-N3,N4-bis((1S,2R)-2-phenylcyclopropyl) pyrrolidine-3,4-dicarboxamide]
16 |  | > 1 | CCCCCCCCCCCCCCCN[C@H]1CN(C(=O)c2ccc(C(=O)N3C[C@@H](C(=O)N[C@H]4C[C@@H]4c4ccccc4)[C@H](C(=O)N[C@H]4C[C@@H]4c4ccccc4)C3)cc2)C[C@@H]1O [Compound 087, (3S,4S)-1-(4-((3S,4S)-3-hydroxy-4-(pentadecylamino)pyrrolidine-1-carbonyl)benzoyl)-N3,N4-bis((1S,2R)-2-phenylcyclopropyl)pyrrolidine-3,4-dicarboxamide]
17 |  | 0.051 to 0.35 | CCCCCCCCN1C(=O)N(Cc2ccc(C(=O)N3C[C@@H](C(=O)N[C@H]4C[C@@H]4c4ccccc4)[C@H](C(=O)N[C@H]4C[C@@H]4c4ccccc4)C3)cc2)C[C@@H]1C(=O)NCCCCCC [Compound 168, (3S,4S)-1-(4-(((R)-4-(hexylcarbamoyl)-3-octyl-2-oxoimidazolidin-1-yl)methyl)benzoyl)-N3,N4-bis((1S,2R)-2-phenylcyclopropyl)pyrrolidine-3,4-dicarboxamide]
18 | > 1 |  | CCCCCCNC(=O)[C@@H]1C[C@@H](C(=O)NCCCCCC)CN(C(=O)c2ccc(C(=O)N3C[C@@H](C(=O)N[C@H]4C[C@@H]4c4ccccc4)[C@H](C(=O)N[C@H]4C[C@@H]4c4ccccc4)C3)cc2)C1 [Compound 043]
19 |  | 0.351 to 1 | CCCCCCN1C(=O)[C@H](CCCCC)NC(=O)[C@@H]1CNC(=O)c1ccc(C(=O)N2C[C@@H](C(=O)N[C@H]3C[C@@H]3c3ccccc3)[C@H](C(=O)N[C@H]3C[C@@H]3c3ccccc3)C2)cc1 [Compound 159]
20 |  | > 1 | CCCCCCNC(=O)[C@@H](CNC(=O)CCCCCC)NC(=O)c1ccc(C(=O)N2C[C@@H](C(=O)N[C@H]3C[C@@H]3c3ccccc3)[C@H](C(=O)N[C@H]3C[C@@H]3c3ccccc3)C2)cc1 [Compound 118, (3S,4S)-1-(4-(((R)-3-heptanamido-1-(hexylamino)-1-oxopropan-2-yl)carbamoyl)benzoyl)-N3,N4-bis((1S,2R)-2-phenylcyclopropyl) pyrrolidine-3,4-dicarboxamide]
